Active and inactive are the calls of the source. The rule behind the calls is not given here.
Columns and labels:
[1] = molecular target: T1, Proteasome component C5 (Homo sapiens) (UniProt P20618); experiment: Inhibition of human 20S proteosome beta1 subunit using […] as substrate preincubated for 30 mins with compound prepared under 365 nm UV light condition for 1 hrs followed by substrate addition and measured after 12 hrs by fluorescence plate reader analysis; details: time 12.5 hrs
T1 sequence (whole entry): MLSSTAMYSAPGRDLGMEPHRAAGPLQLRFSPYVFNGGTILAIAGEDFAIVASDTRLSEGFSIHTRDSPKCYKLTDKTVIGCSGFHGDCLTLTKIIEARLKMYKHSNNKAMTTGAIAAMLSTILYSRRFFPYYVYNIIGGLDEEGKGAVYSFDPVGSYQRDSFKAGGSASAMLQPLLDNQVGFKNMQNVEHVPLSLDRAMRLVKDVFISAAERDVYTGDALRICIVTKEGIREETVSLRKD

[2] = tested on: A549; experiment: Cytotoxicity against human A549 cells assessed as reduction in cell viability incubated for 48 hrs with compound prepared under 365 nm UV light condition for 1 hrs by CellTIter blue reagent based fluorescence plate reader analysis
[3] = Half-life of compound under dark condition measured for 150 hrs at 6 hrs interval by UV-spectroscopy; assay type: physicochemical
[4] = molecular target: Proteasome Macropain subunit (Homo sapiens) (UniProt P49721); experiment: Inhibition of human 20S proteosome beta2 subunit using Bz-VGR-AMC as substrate preincubated for 30 mins with compound prepared under 365 nm UV light condition for 1 hrs followed by substrate addition and measured after 12 hrs by fluorescence plate reader analysis; details: time 12.5 hrs
[5] = tested on: MCF7; experiment: Cytotoxicity against human MCF7 cells assessed as reduction in cell viability incubated for 48 hrs with compound prepared under 365 nm UV light condition for 1 hrs by CellTIter blue reagent based fluorescence plate reader analysis
[6] = tested on: HeLa; experiment: Cytotoxicity against human HeLa cells assessed as reduction in cell viability incubated for 48 hrs with compound prepared under 365 nm UV light condition for 1 hrs by CellTIter blue reagent based fluorescence plate reader analysis
[7] = tested on: A549; experiment: Cytotoxicity against human A549 cells assessed as reduction in cell viability incubated for 48 hrs with compound prepared under dark condition by CellTIter blue reagent based fluorescence plate reader analysis; assay type: functional; details: A549, 48 h
[8] = molecular target: Proteasome Macropain subunit (Homo sapiens) (UniProt P49721); experiment: Inhibition of human 20S proteosome beta2 subunit using Bz-VGR-AMC as substrate preincubated for 30 mins with compound prepared under dark condition followed by substrate addition and measured after 12 hrs by fluorescence plate reader analysis; details: time 12.5 hrs
[9] = molecular target: T1, Proteasome component C5 (Homo sapiens); experiment: Inhibition of human 20S proteosome beta1 subunit using […] as substrate preincubated for 30 mins with compound prepared under dark condition followed by substrate addition and measured after 12 hrs by fluorescence plate reader analysis; details: time 12.5 hrs
[10] = tested on: HeLa; experiment: Cytotoxicity against human HeLa cells assessed as reduction in cell viability incubated for 48 hrs with compound prepared under dark condition by CellTIter blue reagent based fluorescence plate reader analysis
[11] = tested on: MCF7; experiment: Cytotoxicity against human MCF7 cells assessed as reduction in cell viability incubated for 48 hrs with compound prepared under dark condition by CellTIter blue reagent based fluorescence plate reader analysis; assay type: functional; details: MCF7, 48 h
[12] = Potency index, ratio of E-enrichment isomer IC50 to test compound (Z-enrichment isomer) IC50 for cytotoxicity against human A549 cells assessed as reduction in c ell viability incubated for 48 hrs by CellTiter blue reagent based fluorescence plate reader analysis; assay type: functional
[13] = Potency index, ratio of E-enrichment isomer IC50 to test compound (Z-enrichment isomer) IC50 for cytotoxicity against human MCF7 cells assessed as reduction in c ell viability incubated for 48 hrs by CellTiter blue reagent based fluorescence plate reader analysis; assay type: functional
[14] = Potency index, ratio of E-enrichment isomer IC50 to test compound (Z-enrichment isomer) IC50 for cytotoxicity against human HeLa cells assessed as reduction in c ell viability incubated for 48 hrs by CellTiter blue reagent based fluorescence plate reader analysis; assay type: functional
[15] = Retention time of compound by HPLC analysis; assay type: physicochemical

Proteasome Macropain subunit (Homo sapiens), sequence (P49721 whole entry): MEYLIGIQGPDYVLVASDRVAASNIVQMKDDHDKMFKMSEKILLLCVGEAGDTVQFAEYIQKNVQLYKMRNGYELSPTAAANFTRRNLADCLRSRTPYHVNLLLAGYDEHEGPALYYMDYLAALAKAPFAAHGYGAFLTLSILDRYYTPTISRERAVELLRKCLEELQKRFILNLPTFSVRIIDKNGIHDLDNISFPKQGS

| inhibition [1] | half-life [3] [h] | inhibition [4] | inhibition [8] | inhibition [9] | Compound | IC50 [2] [µM] | IC50 [5] [µM] | IC50 [6] [µM] | IC50 [7] [µM] | IC50 [10] [µM] | IC50 [11] [µM] | further results |
| --- | --- | --- | --- | --- | --- | --- | --- | --- | --- | --- | --- | --- |
| – | – | – | inactive | inactive | Cc1cc(C)cc(/N=N/c2cccc(C(=O)N[C@@H](Cc3c[nH]c4ccccc34)C(=O)N[C@@H](CC(C)C)C(=O)N[C@H](/C=C/S(C)(=O)=O)CC(C)C)c2)c1 | – | – | – | 1.98 | 0.285 | 10.6 | – |
| inactive | > 100 | inactive | – | – | Cc1cc(C)cc(N=Nc2cccc(C(=O)N[C@@H](Cc3ccccc3)C(=O)N[C@@H](CC(C)C)C(=O)N[C@H](C=CS(C)(=O)=O)CC(C)C)c2)c1 | 1.9 | 7.51 | 0.32 | – | – | – | – |
| – | – | – | inactive | inactive | Cc1cc(C)cc(/N=N/c2cccc(C(=O)N[C@@H](CC(C)C)C(=O)N[C@@H](CC(C)C)C(=O)N[C@H](/C=C/S(C)(=O)=O)CC(C)C)c2)c1 | – | – | – | 2.56 | 0.42 | 8.36 | Retention_time [15]: 11.1 min |
| inactive | > 100 | inactive | – | – | Cc1cc(C)cc(/N=N\c2cccc(C(=O)N[C@@H](CC(C)C)C(=O)N[C@@H](CC(C)C)C(=O)N[C@H](/C=C/S(C)(=O)=O)CC(C)C)c2)c1 | 0.73 | 4.39 | 0.28 | – | – | – | Retention_time [15]: 13.5 min |
| – | – | – | inactive | inactive | Cc1cc(C)cc(/N=N/c2cccc(C(=O)N[C@@H](Cc3ccccc3)C(=O)N[C@@H](CC(C)C)C(=O)N[C@H](/C=C/S(C)(=O)=O)CC(C)C)c2)c1 | – | – | – | 2.59 | 1.23 | 35.8 | – |

More lines, now with the values behind:

| Compound | inhibition [1] | half-life [3] [h] | inhibition [4] | inhibition [8] | inhibition [9] | IC50 [2] [µM] | IC50 [5] [µM] | IC50 [6] [µM] | IC50 [7] [µM] | IC50 [10] [µM] | IC50 [11] [µM] | further results |
| --- | --- | --- | --- | --- | --- | --- | --- | --- | --- | --- | --- | --- |
| Cc1cc(C)cc(/N=N\c2cccc(C(=O)N[C@@H](Cc3c[nH]c4ccccc34)C(=O)N[C@@H](CC(C)C)C(=O)N[C@H](/C=C/S(C)(=O)=O)CC(C)C)c2)c1 | inactive | > 100 | inactive | – | – | 0.42 | 5.44 | 0.25 | – | – | – | – |
| CC(C)C[C@H](NC(=O)[C@H](Cc1ccc(/N=N\c2ccccc2)cc1)NC(=O)OC(C)(C)C)B1OC2C[C@@H]3C[C@@H](C3(C)C)[C@@]2(C)O1 (some centres not stated) | – | – | – | – | – | 66.4 | 27.9 | 38.1 | – | – | – | Ratio IC50 [12]: 0.79; Ratio IC50 [13]: 1.4; Ratio IC50 [14]: 1 |
| CC(C)CC(NC(=O)[C@H](Cc1ccccc1)NC(=O)c1ccc(/N=N\c2ccccc2)cc1)B(O)O (some centres not stated) | – | – | – | – | – | 17.3 | 6.7 | – | – | – | – | – |
| CC(C)C[C@H](NC(=O)[C@H](Cc1ccc(/N=N/c2ccccc2)cc1)NC(=O)OC(C)(C)C)B1OC2C[C@@H]3C[C@@H](C3(C)C)[C@@]2(C)O1 (some centres not stated) | – | – | – | – | – | – | – | – | 52.5 | 38.2 | 40.1 | – |
| Cc1cc(C)cc(/N=N\c2cccc(C(=O)N[C@H](C(=O)N[C@@H](Cc3ccccc3)C(=O)N[C@H](/C=C/S(C)(=O)=O)CC(C)C)C(C)C)c2)c1 | inactive | > 100 | inactive | – | – | 6.95 | 2.25 | 2.9 | – | – | – | – |
| Cc1cc(C)cc(/N=N/c2cccc(C(=O)N[C@H](C(=O)N[C@@H](Cc3ccccc3)C(=O)N[C@H](/C=C/S(C)(=O)=O)CC(C)C)C(C)C)c2)c1 | – | – | – | inactive | inactive | – | – | – | 45.9 | 9.6 | 48.5 | – |
